In patent US12459925B2, “Sulphonyl urea derivatives as NLRP3 inflammasome modulators” (priority 2017, dated 2025):
Where two headings read alike, the source gives them in different places.

Tested on: IL-1β release upon NLRP3 activation in peripheral blood mononuclear cells (PBMC)
Experiment: PBMC IC50 determination assay (IL-1β release, Protocol A ELISA / Protocol B HTRF)
Type: cell-based
Settings: Homo sapiens
Protocol: The compounds of the present disclosure were tested for their inhibitory activity against IL-1β release upon NLRP3 activation in peripheral blood mononuclear cells (PBMC).
Isolated cells were seeded into the wells of a 96-well plate and incubated for 3 h with lipopolysaccharide (LPS). Following medium exchange, the compounds of the present disclosure were added (a single compound per well) and the cells were incubated for 30 min. Next, the cells were stimulated either with ATP (5 mM) or nigericin (10 μM) for 1 h and the cell culture media from the wells were collected for further analysis.
The release of IL1-β into the media was determined by a quantitative detection of IL-1β in the media using an IL-1β enzyme-linked immunosorbent assay (ELISA) Ready-SET-Go!, eBioscience cat. […] Subsequently, plates were blocked with blocking buffer for 1 h at room temperature (rt) and after washing with a buffer (PBS with 0.05% Tween-20) incubated with protein standard and culture media. […] Plates were washed and incubated with HRP-streptavidin for 30 min at rt and washed again. The signal was developed after addition of 3,3′,5,5′-tetramethylbenzidine-peroxidase (TMB) until colour appeared and the reaction was stopped by 2 M H2SO4. A microplate spectrophotometer (BioTek) was used to detect signals with 450 nm. The detection range of IL-1β ELISA was 2-150 ng/ml.
Isolated cells were seeded into the wells (280,000 cells/well) of a 96-well plate and incubated for 3 h with lipopolysaccharide (LPS, 1 μg/ml diluted 1000× from a 1 mg/ml stock solution). The compounds of the present disclosure were added (a single compound per well) and the cells were incubated for 30 min. Next, the cells were stimulated with ATP (5 mM final concentration diluted 20× from a 100 mM stock solution) for 1 h and the cell culture media from the wells were collected for further analysis.
The release of IL-1β into the media was determined by quantitative detection of IL-1β in the media using HTRF®, CisBio cat. No. 62HIL1BPEH. Briefly, cell culture supernatant were dispensed directly into the assay plate containing antibodies labelled with the HTRF® donor and acceptor. A microplate spectrophotometer (BMG) was used to detect signals at 655 nm and 620 nm. The detection range of IL-1β HTRF® was 39-6500 pg/ml.

[1] = PBMC primed with LPS 3 h, compound 30 min, stimulated with ATP (5 mM) or nigericin (10 μM) 1 h, IL-1β in media, read-out: Average PBMC IC50

SMILES | IC50 [1] [µM] | IC50 (PBMC, read-out: Average PBMC IC50 (μM)) [µM]
Cc1nn(C)cc1N(C1CCOCC1)S(=O)(=O)NC(=O)Nc1c2c(cc3c1CCC3)CCC2 [Compound 99] | < 1 | –
CCc1cc(NC(=O)NS(=O)(=O)N(c2cnn(C)c2)C2CCOCC2)cc(C(C)C)c1 [Compound 81] | 1 to 3 | –
Cc1nn(C)cc1N(C1CCCN(C)C1)S(=O)(=O)NC(=O)Nc1c2c(cc3c1CCC3)CCC2 (centres unmarked) [Compound 103] | < 1 | –
O=C(Nc1c2c(cc3c1CCC3)CCC2)NS(=O)(=O)N(c1cnn(CC(F)F)c1)C1CCOCC1 [Compound 35] | < 1 | –
CCc1cc(NC(=O)NS(=O)(=O)N(C[C@@H]2CCCN2C)c2cnn(C)c2)cc(C(F)(F)F)c1 [Compound 102] | < 1 | –
Cc1ncc(N(C2CCOCC2)S(=O)(=O)NC(=O)Nc2c3c(cc4c2CCC4)CCC3)c(C)n1 [Compound 100] | 1 to 3 | –
CC(C)c1ncc(N(C2CCOCC2)S(=O)(=O)NC(=O)Nc2c3c(cc4c2CCC4)CCC3)cn1 [Compound 104] | < 1 | –
CN1CCC(N(c2cnn(C3CC3)c2)S(=O)(=O)NC(=O)Nc2c3c(cc4c2CCC4)CCC3)CC1 [Compound 39] | < 1 | –
Cn1cc(N(C2CCOCC2)S(=O)(=O)NC(=O)Nc2cc(Cl)cc(OCC(F)(F)F)c2)cn1 [Compound 106] | < 1 | –
CCc1cc(NC(=O)NS(=O)(=O)N(C[C@H]2CCCN2C)c2cnn(C)c2)cc(C(F)(F)F)c1 [Compound 114] | < 1 | –
Cn1cc(N(C2CCN(CC(F)(F)F)C2)S(=O)(=O)NC(=O)Nc2c3c(cc4c2CCC4)CCC3)cn1 (centres unmarked) [Compound 61] | < 1 | –
CN1CC(N(c2cnn(C)c2)S(=O)(=O)NC(=O)Nc2c3c(cc4c2CCC4)CCC3)CCC1=O (centres unmarked) [Compound 82] | < 1 | –
CCc1cc(CC)cc(NC(=O)NS(=O)(=O)N(c2cnn(C)c2)C2CCOCC2)c1 [Compound 70] | 3 to 10 | –
CC(C)n1cc(N(C2CCOCC2)S(=O)(=O)NC(=O)Nc2c3c(cc4c2CCC4)CCC3)cn1 [Compound 4] | < 1 | –
Cc1noc(N(C2CCCN(C)C2)S(=O)(=O)NC(=O)Nc2c3c(cc4c2CCC4)CCC3)c1C (centres unmarked) [Compound 116] | < 1 | –
Cc1c(N(C2CCN(C)CC2)S(=O)(=O)NC(=O)Nc2c3c(cc4c2CCC4)CCC3)cnn1C [Compound 14] | < 1 | –
CC(C)n1cc(N(C2CCN(C)CC2)S(=O)(=O)NC(=O)Nc2c3c(cc4c2CCC4)CCC3)cn1 [Compound 5] | < 1 | –
CCn1cc(N(C2CCN(C)CC2)S(=O)(=O)NC(=O)Nc2c3c(cc4c2CCC4)CCC3)cn1 [Compound 7] | < 1 | –
Cn1cnc(N(C2CCOCC2)S(=O)(=O)NC(=O)Nc2c3c(cc4c2CCC4)CCC3)c1 [Compound 21] | 3 to 10 | –
CN1CCC(N(c2cnn(C)c2)S(=O)(=O)NC(=O)Nc2c3c(cc4c2CCC4)CCC3)CC1C(F)(F)F (centres unmarked) [Compound 60] | < 1 | –
COc1cc(Cl)cc(NC(=O)NS(=O)(=O)N(c2cnn(C)c2)C2CCOCC2)c1 [Compound 93] | < 1 | –
CN1CCC(N(c2cnn(C)c2)S(=O)(=O)NC(=O)Nc2c3c(cc4c2CCC4)CCC3)CC1=O (centres unmarked) [Compound 47] | 1 to 3 | –
Cn1cc(N(C2CC3(C2)CN(CC(F)(F)F)C3)S(=O)(=O)NC(=O)Nc2c3c(cc4c2CCC4)CCC3)cn1 [Compound 69] | 3 to 10 | –
CCc1cc(N(C2CCOCC2)S(=O)(=O)NC(=O)Nc2c3c(cc4c2CCC4)CCC3)on1 [Compound 109] | < 1 | –
Cn1cc(N(C2CCOCC2)S(=O)(=O)NC(=O)Nc2c3c(cc4c2CCC4)CCC3)cn1 [Compound 1] | < 1 | –
Cn1cc(N(C2CCOC2)S(=O)(=O)NC(=O)Nc2c3c(cc4c2CCC4)CCC3)cn1 (centres unmarked) [Compound 8] | < 1 | –
Cn1ccc(N(C2CCOCC2)S(=O)(=O)NC(=O)Nc2c3c(cc4c2CCC4)CCC3)c1 [Compound 95] | < 1 | –

SMILES | IC50 [1] [µM] | IC50 (PBMC, read-out: Average PBMC IC50 (μM)) [µM]
Cn1cc(N(C2CCOCC2)S(=O)(=O)NC(=O)Nc2cc(Cl)cc(Cl)c2F)cn1 [Compound 94] | 1 to 3 | –
O=C(Nc1c2c(cc3c1CCC3)CCC2)NS(=O)(=O)N(c1cncnc1)C1CCOCC1 [Compound 17] | < 1 | –
CN1CCC(N(c2cnn(CC#N)c2)S(=O)(=O)NC(=O)Nc2c3c(cc4c2CCC4)CCC3)CC1 [Compound 31] | < 1 | –
CN1CCC[C@H]1CN(c1cnn(C)c1)S(=O)(=O)NC(=O)Nc1c2c(cc3c1CCC3)CCC2 [Compound 107] | < 1 | –
CCc1cc(NC(=O)NS(=O)(=O)N(c2cnn(C)c2)C2CCCN(C)C2)cc(C(F)(F)F)c1 (centres unmarked) [Compound 97] | < 1 | –
Cc1ncc(N(C2CCOCC2)S(=O)(=O)NC(=O)Nc2c3c(cc4c2CCC4)CCC3)cn1 [Compound 86] | < 1 | –
CN1CCC(CN(c2cnn(C)c2)S(=O)(=O)NC(=O)Nc2c3c(cc4c2CCC4)CCC3)CC1 [Compound 3] | 1 to 3 | –
CC(C)Cc1cc(Cl)cc(NC(=O)NS(=O)(=O)N(c2cnn(C)c2)C2CCOCC2)c1 [Compound 98] | 1 to 3 | –
CN1CC(N(c2cnn(C)c2)S(=O)(=O)NC(=O)Nc2c3c(cc4c2CCC4)CCC3)C1 [Compound 59] | < 1 | –
COCn1cc(N(C2CCOCC2)S(=O)(=O)NC(=O)Nc2c3c(cc4c2CCC4)CCC3)cn1 [Compound 27] | < 1 | –
CCc1cc(NC(=O)NS(=O)(=O)N(c2cnn(C)c2)C2CCOCC2)cc(C(F)(F)F)c1 [Compound 75] | < 1 | –
Cn1cc(N(C2CCOC(C)(C)C2)S(=O)(=O)NC(=O)Nc2c3c(cc4c2CCC4)CCC3)cn1 (centres unmarked) [Compound 79] | < 1 | –
Cc1noc(N(C2CCOCC2)S(=O)(=O)NC(=O)Nc2c3c(cc4c2CCC4)CCC3)c1C [Compound 87] | < 1 | –
CN1CCCC(N(c2cnn(C)c2)S(=O)(=O)NC(=O)Nc2cc(Cl)cc(Cl)c2)C1 (centres unmarked) [Compound 91] | < 1 | –
CC1CN(CCN(c2cnn(C)c2)S(=O)(=O)NC(=O)Nc2c3c(cc4c2CCC4)CCC3)C1 [Compound 74] | 3 to 10 | –
CN1CCC(N(c2cnn(CC(F)(F)F)c2)S(=O)(=O)NC(=O)Nc2c3c(cc4c2CCC4)CCC3)CC1 [Compound 37] | < 1 | –
CCCCc1cc(Cl)cc(NC(=O)NS(=O)(=O)N(c2cnn(C)c2)C2CCOCC2)c1 [Compound 115] | < 1 | –
O=C(Nc1c2c(cc3c1CCC3)CCC2)NS(=O)(=O)N(c1cnn(C2COC2)c1)C1CCOCC1 [Compound 41] | < 1 | –
CC(C)N1CCCC(N(c2cnn(C)c2)S(=O)(=O)NC(=O)Nc2c3c(cc4c2CCC4)CCC3)C1 (centres unmarked) [Compound 52] | < 1 | –
O=C(Nc1c2c(cc3c1CCC3)CCC2)NS(=O)(=O)N(c1cn[nH]c1)C1CCOCC1 [Compound 48] | – | < 1
CCOc1cc(NC(=O)NS(=O)(=O)N(c2cnn(C)c2)C2CCOCC2)cc(OCC)c1 [Compound 90] | 10 to 50 | –
CC(C)n1cc(N(C2CCN(C)C2)S(=O)(=O)NC(=O)Nc2c3c(cc4c2CCC4)CCC3)cn1 (centres unmarked) [Compound 56] | < 1 | –
Cc1c(N(C2CCOCC2)S(=O)(=O)NC(=O)Nc2c3c(cc4c2CCC4)CCC3)cnn1C [Compound 10] | < 1 | –
Cc1cc(N(C2CCOCC2)S(=O)(=O)NC(=O)Nc2c3c(cc4c2CCC4)CCC3)on1 [Compound 18] | < 1 | –
Cn1cc(N(C2CCOCC2)S(=O)(=O)NC(=O)Nc2cc(Cl)cc(OC(F)(F)F)c2)cn1 [Compound 92] | 1 to 3 | –
CCc1cc(CC)cc(NC(=O)NS(=O)(=O)N(c2cnn(C)c2)C2CCN(C)CC2)c1 [Compound 53] | < 1 | –
